Columns and labels:
Assay type in all cases: biochemical
LjICYC [1] = target: T1, LjICYC (Lonicera japonica, UniProt Z9XP04JJ76); assay: spectrophotometric esterase assay, […] nm; settings: 2 mM substrate; 0.5 uM enzyme; 100 mM HEPES pH 7; 1 mM CaCl2; 25 °C
T1 construct: synthetic full-length gene in pOPINF, His-tagged, E. coli SoluBL21 (DE3), Ni-NTA
T1 sequence (Z9XP04JJ76 1-260): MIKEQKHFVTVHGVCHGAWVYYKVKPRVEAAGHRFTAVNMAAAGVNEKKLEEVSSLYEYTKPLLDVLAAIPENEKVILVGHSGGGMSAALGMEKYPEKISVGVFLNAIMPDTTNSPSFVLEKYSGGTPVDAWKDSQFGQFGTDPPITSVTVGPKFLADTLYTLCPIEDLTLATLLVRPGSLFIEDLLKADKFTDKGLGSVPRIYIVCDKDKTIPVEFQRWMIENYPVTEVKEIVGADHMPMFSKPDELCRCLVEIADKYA

CrICYC [2] = target: T2, CrICYC (Catharanthus roseus, UniProt Z9BZX6L7S3); assay: spectrophotometric esterase assay, […] nm; settings: 2 mM substrate; 0.5 uM enzyme; 100 mM HEPES pH 7; 1 mM CaCl2; 25 °C
T2 construct: full-length CDS in pOPINF, His-tagged, E. coli SoluBL21 (DE3), Ni-NTA
T2 sequence (Z9BZX6L7S3 1-258): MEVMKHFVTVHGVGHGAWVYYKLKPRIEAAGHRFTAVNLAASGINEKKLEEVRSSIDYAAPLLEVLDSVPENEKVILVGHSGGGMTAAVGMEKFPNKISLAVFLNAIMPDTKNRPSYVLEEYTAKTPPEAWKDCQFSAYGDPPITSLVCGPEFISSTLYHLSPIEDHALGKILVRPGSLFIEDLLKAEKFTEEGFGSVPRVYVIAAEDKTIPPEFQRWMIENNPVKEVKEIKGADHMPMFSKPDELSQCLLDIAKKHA

SiICYC [3] = target: T3, SiICYC (Sesamum indicum, UniProt A0A6I9UJQ5); assay: spectrophotometric esterase assay, […] nm; settings: 2 mM substrate; 0.5 uM enzyme; 100 mM HEPES pH 7; 1 mM CaCl2; 25 °C
T3 construct: gene LOC105177689; synthetic full-length gene in pOPINF, His-tagged, E. coli SoluBL21 (DE3), Ni-NTA

AmICYC [4] = target: T4, AmICYC (Antirrhinum majus, UniProt Z9RFY5ZUY7); assay: spectrophotometric esterase assay, […] nm; settings: 2 mM substrate; 0.5 uM enzyme; 100 mM HEPES pH 7; 1 mM CaCl2; 25 °C
T4 construct: synthetic full-length gene in pOPINF, His-tagged, E. coli SoluBL21 (DE3), Ni-NTA
T4 sequence (Z9RFY5ZUY7 1-261): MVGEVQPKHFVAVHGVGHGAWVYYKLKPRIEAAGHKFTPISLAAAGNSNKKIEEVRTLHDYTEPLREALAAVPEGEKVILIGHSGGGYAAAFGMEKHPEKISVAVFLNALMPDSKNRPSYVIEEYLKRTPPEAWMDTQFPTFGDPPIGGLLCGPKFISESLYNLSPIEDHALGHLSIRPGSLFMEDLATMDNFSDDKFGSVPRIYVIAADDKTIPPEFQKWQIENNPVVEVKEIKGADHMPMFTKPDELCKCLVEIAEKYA

AsICYC [5] = target: T5, AsICYC (Alangium salviifolium, UniProt Z9MAI7V5A1); assay: spectrophotometric esterase assay, […] nm; settings: 2 mM substrate; 0.5 uM enzyme; 100 mM HEPES pH 7; 1 mM CaCl2; 25 °C
T5 construct: full-length CDS in pOPINF, His-tagged, E. coli SoluBL21 (DE3), Ni-NTA
T5 sequence (Z9MAI7V5A1 1-262): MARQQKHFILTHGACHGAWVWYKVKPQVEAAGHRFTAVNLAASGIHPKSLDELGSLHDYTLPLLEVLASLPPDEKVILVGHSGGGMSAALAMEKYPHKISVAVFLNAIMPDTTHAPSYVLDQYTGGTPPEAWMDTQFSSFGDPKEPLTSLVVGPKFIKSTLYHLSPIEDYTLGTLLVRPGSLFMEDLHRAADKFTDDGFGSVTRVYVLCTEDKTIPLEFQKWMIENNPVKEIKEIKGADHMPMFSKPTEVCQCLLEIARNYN

VcICYC [6] = target: T6, VcICYC (Vaccinium corymbosum, UniProt Z9DZC4CR80); assay: spectrophotometric esterase assay, […] nm; settings: 2 mM substrate; 0.5 uM enzyme; 100 mM HEPES pH 7; 1 mM CaCl2; 25 °C
T6 construct: synthetic full-length gene in pOPINF, His-tagged, E. coli SoluBL21 (DE3), Ni-NTA
T6 sequence (Z9DZC4CR80 1-256): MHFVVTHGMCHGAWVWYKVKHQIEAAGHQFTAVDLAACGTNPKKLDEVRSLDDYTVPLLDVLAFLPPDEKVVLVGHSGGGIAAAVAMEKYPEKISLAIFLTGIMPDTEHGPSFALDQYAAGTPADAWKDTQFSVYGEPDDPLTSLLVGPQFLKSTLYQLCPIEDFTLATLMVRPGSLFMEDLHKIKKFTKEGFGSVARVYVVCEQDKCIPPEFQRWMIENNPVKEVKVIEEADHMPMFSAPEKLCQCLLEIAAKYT

CiICYC [7] = target: T7, CiICYC (Carapichea ipecacuanha, UniProt Z9ZM09DHC0); assay: spectrophotometric esterase assay, […] nm; settings: 2 mM substrate; 0.5 uM enzyme; 100 mM HEPES pH 7; 1 mM CaCl2; 25 °C
T7 construct: full-length CDS in pOPINF, His-tagged, E. coli SoluBL21 (DE3), Ni-NTA
T7 sequence (Z9ZM09DHC0 1-260): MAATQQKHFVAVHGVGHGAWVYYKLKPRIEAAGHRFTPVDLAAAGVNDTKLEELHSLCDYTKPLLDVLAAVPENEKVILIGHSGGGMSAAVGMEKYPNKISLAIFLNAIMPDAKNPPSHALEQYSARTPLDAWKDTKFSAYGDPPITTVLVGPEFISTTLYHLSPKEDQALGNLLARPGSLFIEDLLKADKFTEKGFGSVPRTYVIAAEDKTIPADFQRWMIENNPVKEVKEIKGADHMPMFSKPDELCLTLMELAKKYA

AmISY = target: T8, AmISY (Antirrhinum majus, UniProt A0A221J5P3); assay: GC-MS of products; settings: 0.5 mM 8-oxogeranial; 1 mM NADPH; 0.5 uM AmISY; 100 mM MOPS pH 7.5; 30 °C; 3 h
T8 construct: gene ISY; recombinant, E. coli, pOPINF His-tagged
T8 sequence (A0A221J5P3 1-387): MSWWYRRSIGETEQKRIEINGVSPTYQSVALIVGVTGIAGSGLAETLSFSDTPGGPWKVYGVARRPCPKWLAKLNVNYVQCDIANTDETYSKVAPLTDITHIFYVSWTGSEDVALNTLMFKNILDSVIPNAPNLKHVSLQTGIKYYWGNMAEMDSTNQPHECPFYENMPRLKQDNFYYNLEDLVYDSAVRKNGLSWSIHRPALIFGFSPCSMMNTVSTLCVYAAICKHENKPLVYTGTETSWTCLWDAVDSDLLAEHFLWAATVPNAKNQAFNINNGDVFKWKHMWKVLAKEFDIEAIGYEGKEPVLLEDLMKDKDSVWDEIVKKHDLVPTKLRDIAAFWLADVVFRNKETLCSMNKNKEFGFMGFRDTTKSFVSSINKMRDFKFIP

CrISY = target: T9, CrISY (Catharanthus roseus, UniProt K7WDL7); assay: GC-MS of products; settings: 0.5 mM 8-oxogeranial; 1 mM NADPH; 0.25 uM CrISY; 100 mM MOPS pH 7.5; 30 °C; 3 h
T9 construct: recombinant, E. coli, pOPINF His-tagged

SiICYC [8] = target: T3, SiICYC; assay: GC-MS of 7R-cis-cis nepetalactol formed in coupled assay with AmISY; settings: enol generated in situ from 0.5 mM 8-oxogeranial by AmISY with 1 mM NADPH; 2 uM ICYC; 100 mM MOPS pH 7.5; 30 °C; 3 h
AmICYC [9] = target: T4, AmICYC; assay: as above; settings: enol generated in situ from 0.5 mM 8-oxogeranial by AmISY with 1 mM NADPH; 2 uM ICYC; 100 mM MOPS pH 7.5; 30 °C; 3 h
VcICYC [10] = target: T6, VcICYC; assay: GC-MS of 7S-cis-trans nepetalactol formed in coupled assay with CrISY; settings: enol generated in situ from 0.5 mM 8-oxogeranial by CrISY with 1 mM NADPH; 2 uM ICYC; 100 mM MOPS pH 7.5; 30 °C; 3 h
AsICYC [11] = target: T5, AsICYC; assay: as above; settings: enol generated in situ from 0.5 mM 8-oxogeranial by CrISY with 1 mM NADPH; 2 uM ICYC; 100 mM MOPS pH 7.5; 30 °C; 3 h
CrICYC [12] = target: T2, CrICYC; assay: as above; settings: enol generated in situ from 0.5 mM 8-oxogeranial by CrISY with 1 mM NADPH; 2 uM ICYC; 100 mM MOPS pH 7.5; 30 °C; 3 h
LjICYC [13] = target: T1, LjICYC; assay: as above; settings: enol generated in situ from 0.5 mM 8-oxogeranial by CrISY with 1 mM NADPH; 2 uM ICYC; 100 mM MOPS pH 7.5; 30 °C; 3 h
CiICYC [14] = target: T7, CiICYC; assay: as above; settings: enol generated in situ from 0.5 mM 8-oxogeranial by CrISY with 1 mM NADPH; 2 uM ICYC; 100 mM MOPS pH 7.5; 30 °C; 3 h

T3 sequence (A0A6I9UJQ5 entry or part of it): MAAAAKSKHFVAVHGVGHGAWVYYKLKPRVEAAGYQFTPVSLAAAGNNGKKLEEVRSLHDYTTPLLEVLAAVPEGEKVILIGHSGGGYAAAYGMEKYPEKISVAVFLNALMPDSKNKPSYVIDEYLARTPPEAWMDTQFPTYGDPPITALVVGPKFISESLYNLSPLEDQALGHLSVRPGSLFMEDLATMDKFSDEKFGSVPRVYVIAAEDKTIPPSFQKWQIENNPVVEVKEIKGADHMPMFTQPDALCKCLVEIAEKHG
T9 sequence (K7WDL7 whole entry): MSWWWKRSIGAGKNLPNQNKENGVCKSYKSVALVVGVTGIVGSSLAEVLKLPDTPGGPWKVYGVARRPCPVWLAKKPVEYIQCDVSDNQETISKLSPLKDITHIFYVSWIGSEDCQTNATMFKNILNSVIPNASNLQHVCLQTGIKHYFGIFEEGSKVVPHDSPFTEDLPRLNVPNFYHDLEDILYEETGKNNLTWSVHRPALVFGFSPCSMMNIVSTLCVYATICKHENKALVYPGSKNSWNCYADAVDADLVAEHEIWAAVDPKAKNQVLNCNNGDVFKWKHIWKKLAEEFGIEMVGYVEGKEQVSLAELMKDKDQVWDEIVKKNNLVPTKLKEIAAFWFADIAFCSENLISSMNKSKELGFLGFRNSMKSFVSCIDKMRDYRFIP

SMILES: CC(=O)Oc1ccc([N+](=O)[O-])cc1 [4-nitrophenyl acetate]
- spectrophotometric esterase assay, 405 nm (LjICYC [1]): All ICYC orthologues showed esterase activity when tested with the model substrate 4-nitrophenyl acetate
- spectrophotometric esterase assay, 405 nm (CrICYC [2]): All ICYC orthologues showed esterase activity when tested with the model substrate 4-nitrophenyl acetate
- spectrophotometric esterase assay, 405 nm (SiICYC [3]): All ICYC orthologues showed esterase activity when tested with the model substrate 4-nitrophenyl acetate
- spectrophotometric esterase assay, 405 nm (AmICYC [4]): All ICYC orthologues showed esterase activity when tested with the model substrate 4-nitrophenyl acetate
- spectrophotometric esterase assay, 405 nm (AsICYC [5]): All ICYC orthologues showed esterase activity when tested with the model substrate 4-nitrophenyl acetate
- spectrophotometric esterase assay, 405 nm (VcICYC [6]): All ICYC orthologues showed esterase activity when tested with the model substrate 4-nitrophenyl acetate
- spectrophotometric esterase assay, 405 nm (CiICYC [7]): All ICYC orthologues showed esterase activity when tested with the model substrate 4-nitrophenyl acetate

SMILES: C/C(C=O)=C\CC/C(C)=C/C=O [8-oxogeranial]
- GC-MS of products (AmISY): CrISY and AmISY reduce 8-oxogeranial to form the unstable intermediate S- or R-8-oxocitronellyl enol
- GC-MS of products (CrISY): CrISY and AmISY reduce 8-oxogeranial to form the unstable intermediate S- or R-8-oxocitronellyl enol

SMILES: C/C(C=O)=C\CC[C@@H](C)/C=C/O [R-8-oxocitronellyl enol]
- GC-MS of 7R-cis-cis nepetalactol formed in coupled assay with AmISY (SiICYC [8]): When AmISY was assayed with ICYC orthologues, a new peak appeared
- GC-MS of 7R-cis-cis nepetalactol formed in coupled assay with AmISY (AmICYC [9]): When AmISY was assayed with ICYC orthologues, a new peak appeared

SMILES: C/C(C=O)=C\CC[C@H](C)/C=C/O [S-8-oxocitronellyl enol]
- GC-MS of 7S-cis-trans nepetalactol formed in coupled assay with CrISY (VcICYC [10]): any of the ICYC orthologues, 7S-cis-trans (7S, 4aS, 7aS) nepetalactol accumulation was substantially increased
- GC-MS of 7S-cis-trans nepetalactol formed in coupled assay with CrISY (AsICYC [11]): any of the ICYC orthologues, 7S-cis-trans (7S, 4aS, 7aS) nepetalactol accumulation was substantially increased
- GC-MS of 7S-cis-trans nepetalactol formed in coupled assay with CrISY (CrICYC [12]): any of the ICYC orthologues, 7S-cis-trans (7S, 4aS, 7aS) nepetalactol accumulation was substantially increased
- GC-MS of 7S-cis-trans nepetalactol formed in coupled assay with CrISY (LjICYC [13]): any of the ICYC orthologues, 7S-cis-trans (7S, 4aS, 7aS) nepetalactol accumulation was substantially increased
- GC-MS of 7S-cis-trans nepetalactol formed in coupled assay with CrISY (CiICYC [14]): any of the ICYC orthologues, 7S-cis-trans (7S, 4aS, 7aS) nepetalactol accumulation was substantially increased

Reference: publication PMC12626888, “Discovery of iridoid cyclase completes the iridoid pathway in asterids” (Nature Plants, 2025)
